Measurements taken from patent publication US7880007B2, “Bicyclic substituted phenyl piperidine modulators of muscarinic receptors” (Vertex Pharmaceuticals Incorporated, priority 2004, dated 2011).

How the values were obtained:
Type in all cases: cell-based
M1 muscarinic receptor = molecular target: T1, M1 muscarinic receptor (Homo sapiens, UniProt P11229); experiment: Functional mobilization of intracellular calcium (FLIPR), M1-CHO cells; conditions: for Emax: 100% efficacy = maximum response obtained with the Carbachol control; for M1 Activity: M1-CHO cells, calcium mobilization (FLIPR)
T1 construct: expressed in transfected cells; host or cells: CHO (M1-CHO)
T1 sequence (P11229 1-460): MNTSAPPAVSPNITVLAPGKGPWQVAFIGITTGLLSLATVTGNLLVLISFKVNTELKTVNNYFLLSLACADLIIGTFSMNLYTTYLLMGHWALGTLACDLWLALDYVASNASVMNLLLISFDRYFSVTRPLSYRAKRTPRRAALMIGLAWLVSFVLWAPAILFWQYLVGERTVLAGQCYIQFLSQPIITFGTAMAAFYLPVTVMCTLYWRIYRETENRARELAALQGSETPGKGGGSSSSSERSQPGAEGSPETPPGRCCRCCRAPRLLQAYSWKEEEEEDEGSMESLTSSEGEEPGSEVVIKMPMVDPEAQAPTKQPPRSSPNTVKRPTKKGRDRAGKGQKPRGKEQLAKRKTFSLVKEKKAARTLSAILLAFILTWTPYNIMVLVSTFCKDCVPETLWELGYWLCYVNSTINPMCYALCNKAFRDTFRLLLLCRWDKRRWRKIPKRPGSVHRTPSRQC
Procedure, shortened: (§1)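 Calcium mobilisation read by FLIPR over 60 s (ex 488/em 540 nm) in recombinant muscarinic CHO lines loaded with calcium dye plus 1 mM probenecid. Compounds tested as agonists alone, or as inhibitors against EC80 carbachol after 15 min pre-incubation or co-addition; 0.5% DMSO; efficacy scaled to carbachol maximal response.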

M3 muscarinic receptor = molecular target: T2, M3 muscarinic receptor (Homo sapiens, UniProt P20309); experiment: Functional mobilization of intracellular calcium (FLIPR), M3-CHO cells; conditions: for Emax: 100% efficacy = maximum response obtained with the Carbachol control; for M3 Activity: M3-CHO cells, calcium mobilization (FLIPR)
T2 construct: expressed in transfected cells; host or cells: CHO (M3-CHO)
T2 sequence (P20309 whole entry): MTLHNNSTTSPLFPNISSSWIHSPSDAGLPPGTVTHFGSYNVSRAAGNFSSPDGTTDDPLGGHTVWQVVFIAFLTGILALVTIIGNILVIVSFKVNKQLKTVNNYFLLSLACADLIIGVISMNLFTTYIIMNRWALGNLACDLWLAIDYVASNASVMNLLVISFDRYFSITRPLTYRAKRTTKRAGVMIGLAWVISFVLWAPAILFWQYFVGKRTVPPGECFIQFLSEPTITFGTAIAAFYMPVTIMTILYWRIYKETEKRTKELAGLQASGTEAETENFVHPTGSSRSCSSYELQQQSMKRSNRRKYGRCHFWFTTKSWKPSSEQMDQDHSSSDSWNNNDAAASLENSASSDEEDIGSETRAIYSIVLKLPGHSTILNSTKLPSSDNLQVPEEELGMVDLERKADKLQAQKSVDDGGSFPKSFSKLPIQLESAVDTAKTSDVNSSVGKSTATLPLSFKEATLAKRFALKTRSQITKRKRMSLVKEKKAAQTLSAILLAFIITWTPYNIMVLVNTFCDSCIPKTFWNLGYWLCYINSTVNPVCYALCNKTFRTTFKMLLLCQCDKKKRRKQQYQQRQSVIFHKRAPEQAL
Procedure, shortened: as §1

M4 muscarinic receptor = molecular target: T3, M4 muscarinic receptor (Homo sapiens, UniProt P08173); experiment: Functional mobilization of intracellular calcium (FLIPR), M4-CHO cells; conditions: for Emax: 100% efficacy = maximum response obtained with the Carbachol control; for M4 Activity: M4-CHO cells, calcium mobilization (FLIPR)
T3 construct: expressed in transfected cells; host or cells: CHO (M4-CHO)
T3 sequence (P08173 1-479): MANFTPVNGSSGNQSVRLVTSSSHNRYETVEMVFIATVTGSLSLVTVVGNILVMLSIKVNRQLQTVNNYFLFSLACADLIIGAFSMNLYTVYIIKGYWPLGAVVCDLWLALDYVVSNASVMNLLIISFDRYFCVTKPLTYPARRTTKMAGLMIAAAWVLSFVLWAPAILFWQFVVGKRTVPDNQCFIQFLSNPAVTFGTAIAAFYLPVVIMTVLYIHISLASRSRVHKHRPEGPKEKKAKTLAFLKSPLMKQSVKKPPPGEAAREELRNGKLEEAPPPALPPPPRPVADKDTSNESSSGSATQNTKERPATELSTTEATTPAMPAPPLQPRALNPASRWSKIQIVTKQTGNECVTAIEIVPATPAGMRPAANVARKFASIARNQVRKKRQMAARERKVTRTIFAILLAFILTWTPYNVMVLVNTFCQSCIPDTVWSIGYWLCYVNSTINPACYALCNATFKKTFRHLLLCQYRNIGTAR
Procedure, shortened: as §1

M2 muscarinic receptor = molecular target: T4, M2 muscarinic receptor (Homo sapiens, UniProt P08172); experiment: Functional mobilization of intracellular calcium (FLIPR), M2-CHO cells; conditions: for Emax: 100% efficacy = maximum response obtained with the Carbachol control; for M2 Activity: M2-CHO cells, calcium mobilization (FLIPR)
T4 construct: expressed in transfected cells; host or cells: CHO (M2-CHO)
T4 sequence (P08172 1-466): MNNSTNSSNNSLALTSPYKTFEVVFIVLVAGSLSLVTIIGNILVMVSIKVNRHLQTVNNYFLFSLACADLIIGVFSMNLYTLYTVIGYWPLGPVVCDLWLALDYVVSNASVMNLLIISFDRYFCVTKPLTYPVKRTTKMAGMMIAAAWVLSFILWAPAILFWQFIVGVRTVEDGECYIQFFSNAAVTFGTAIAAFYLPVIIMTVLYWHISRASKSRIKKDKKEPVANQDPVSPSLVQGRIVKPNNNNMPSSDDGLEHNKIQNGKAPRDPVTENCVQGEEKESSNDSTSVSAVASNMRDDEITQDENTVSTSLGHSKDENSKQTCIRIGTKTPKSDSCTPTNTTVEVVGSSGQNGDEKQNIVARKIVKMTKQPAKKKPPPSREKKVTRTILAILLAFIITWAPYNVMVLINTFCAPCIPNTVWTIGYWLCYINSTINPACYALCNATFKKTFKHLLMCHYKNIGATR
Procedure, shortened: as §1

| Emax (M1 muscarinic receptor) [%] | Emax (M3 muscarinic receptor) [%] | Emax (M4 muscarinic receptor) [%] | Emax (M2 muscarinic receptor) [%] | SMILES | M1 Activity (M1 muscarinic receptor) | M3 Activity (M3 muscarinic receptor) | M4 Activity (M4 muscarinic receptor) | M2 Activity (M2 muscarinic receptor) |
| --- | --- | --- | --- | --- | --- | --- | --- | --- |
| 25 to 100 | < 25 | 25 to 100 | < 25 | Cc1cccc(C2CCN(C3C[C@H]4CC[C@H]3C4)CC2)c1C (stereo partly drawn) [Compound 225] | + (activity was measured to be greater than 5.0 μM) | + (activity was measured to be greater than 5.0 μM) | ++ (activity was measured to be from 1.0 μM to 5.0 μM) | + (activity was measured to be greater than 5.0 μM) |
| 25 to 100 | < 25 | 25 to 100 | < 25 | COc1ccc(Cl)cc1C1CCN(CC2CCOCC2)CC1 [Compound 121] | ++ (activity was measured to be from 1.0 μM to 5.0 μM) | + (activity was measured to be greater than 5.0 μM) | +++ (activity was measured to be less than 1.0 μM) | + (activity was measured to be greater than 5.0 μM) |
| 25 to 100 | < 25 | 25 to 100 | < 25 | COc1ccc(-c2ccc(C(C)(C)C#N)cc2)cc1C1CCN(C2CC3CCC(C3)C2)CC1 (stereo not drawn) [Compound 361] | + (activity was measured to be greater than 5.0 μM) | + (activity was measured to be greater than 5.0 μM) | + (activity was measured to be greater than 5.0 μM) | + (activity was measured to be greater than 5.0 μM) |
| < 25 | < 25 | 25 to 100 | < 25 | COc1ccc(-c2ccc3c(c2)OCO3)cc1C1CCN(C2CC3CCC(C3)C2)CC1 (stereo not drawn) [Compound 77] | + (activity was measured to be greater than 5.0 μM) | + (activity was measured to be greater than 5.0 μM) | + (activity was measured to be greater than 5.0 μM) | + (activity was measured to be greater than 5.0 μM) |
| < 25 | < 25 | < 25 | < 25 | COc1ccc(-c2ccc([S+](C)[O-])cc2)cc1C1CCN(C2CCOCC2)CC1 (stereo not drawn) [Compound 22] | + (activity was measured to be greater than 5.0 μM) | + (activity was measured to be greater than 5.0 μM) | + (activity was measured to be greater than 5.0 μM) | + (activity was measured to be greater than 5.0 μM) |
| 25 to 100 | < 25 | 25 to 100 | 25 to 100 | COc1ccc(F)cc1C1(F)CCN(C[C@H]2C[C@H]3C=C[C@H]2C3)CC1 [Compound 134] | ++ (activity was measured to be from 1.0 μM to 5.0 μM) | + (activity was measured to be greater than 5.0 μM) | +++ (activity was measured to be less than 1.0 μM) | ++ (activity was measured to be from 1.0 μM to 5.0 μM) |
| 25 to 100 | < 25 | 25 to 100 | < 25 | CCOC(=O)N1CCC(CN2CCC(c3cc(C#N)ccc3OC)CC2)CC1 [Compound 264] | +++ (activity was measured to be less than 1.0 μM) | + (activity was measured to be greater than 5.0 μM) | +++ (activity was measured to be less than 1.0 μM) | + (activity was measured to be greater than 5.0 μM) |
| 25 to 100 | < 25 | 25 to 100 | < 25 | Cc1ccccc1C1CCN(C2CC3CCC(C3)C2)CC1 (stereo not drawn) [Compound 86] | ++ (activity was measured to be from 1.0 μM to 5.0 μM) | + (activity was measured to be greater than 5.0 μM) | +++ (activity was measured to be less than 1.0 μM) | + (activity was measured to be greater than 5.0 μM) |
| 25 to 100 | < 25 | 25 to 100 | < 25 | COc1ccc(-c2ccc(C#N)cc2)cc1C1CCN(C2CCOCC2)CC1 [Compound 352] | + (activity was measured to be greater than 5.0 μM) | + (activity was measured to be greater than 5.0 μM) | + (activity was measured to be greater than 5.0 μM) | + (activity was measured to be greater than 5.0 μM) |
| 25 to 100 | < 25 | 25 to 100 | < 25 | COc1c(F)cc(F)cc1C1CCN([C@H]2C[C@H]3CC[C@H]2C3)CC1 [Compound 165] | + (activity was measured to be greater than 5.0 μM) | + (activity was measured to be greater than 5.0 μM) | ++ (activity was measured to be from 1.0 μM to 5.0 μM) | + (activity was measured to be greater than 5.0 μM) |
| 25 to 100 | < 25 | 25 to 100 | < 25 | COc1ccccc1C1CCN(C2CCC3CCC2C3)CC1 (stereo not drawn) [Compound 221] | + (activity was measured to be greater than 5.0 μM) | + (activity was measured to be greater than 5.0 μM) | +++ (activity was measured to be less than 1.0 μM) | + (activity was measured to be greater than 5.0 μM) |
| 25 to 100 | < 25 | 25 to 100 | < 25 | CCOC(=O)N1CCC(CN2CCC(c3cc(F)cc(F)c3OC)CC2)CC1 [Compound 65] | +++ (activity was measured to be less than 1.0 μM) | + (activity was measured to be greater than 5.0 μM) | +++ (activity was measured to be less than 1.0 μM) | + (activity was measured to be greater than 5.0 μM) |
| 25 to 100 | < 25 | 25 to 100 | < 25 | COc1ccc(C(=O)C(C)(C)C)cc1C1CCN([C@H]2C[C@H]3CC[C@H]2C3)CC1 [Compound 109] | ++ (activity was measured to be from 1.0 μM to 5.0 μM) | + (activity was measured to be greater than 5.0 μM) | + (activity was measured to be greater than 5.0 μM) | + (activity was measured to be greater than 5.0 μM) |
| < 25 | < 25 | 25 to 100 | < 25 | COc1ccc(-c2ccc(S(=O)(=O)N3CCCC3)cc2)cc1C1CCN(C2CC3CCC(C3)C2)CC1 (stereo not drawn) [Compound 129] | + (activity was measured to be greater than 5.0 μM) | + (activity was measured to be greater than 5.0 μM) | + (activity was measured to be greater than 5.0 μM) | + (activity was measured to be greater than 5.0 μM) |
| < 25 | < 25 | 25 to 100 | < 25 | COc1ccc(-c2ccoc2)cc1C1CCN([C@@H]2C[C@H]3CC[C@H]2C3)CC1 [Compound 237] | + (activity was measured to be greater than 5.0 μM) | + (activity was measured to be greater than 5.0 μM) | ++ (activity was measured to be from 1.0 μM to 5.0 μM) | + (activity was measured to be greater than 5.0 μM) |
